Experimental data: DBAASP
Values after ≈ are worked out from the molar mass of the structure shown.

Experiments:
Assay in all cases: ≥ marks a high value that may be exact or a test limit, other limits are often not marked, values filed in µg/mL are converted to µM
[1] = test system: Escherichia coli ATCC 25922
[2] = test system: Bacillus megaterium Bm11
[3] = test system: Yersinia pseudotuberculosis YPIII
[4] = test system: Staphylococcus capitis 1
[5] = test system: Staphylococcus aureus Cowan 1
[6] = test system: Candida albicans ATCC 10231
[7] = test system: Vibrio alginolyticus
[8] = test system: Streptococcus agalactiae BCRC 10787
[9] = test system: Aeromonas hydrophila BCRC 13018
[10] = test system: Enterococcus faecalis BCRC 10066
[11] = test system: Streptococcus agalactiae 819
[12] = test system: Pseudomonas aeruginosa ATCC 19660
[13] = test system: Vibrio vulnificus 204
[14] = test system: Pseudomonas aeruginosa
[15] = test system: Candida albicans
[16] = test system: Staphylococcus aureus
[17] = test system: Salmonella typhimurium
[18] = test system: Serratia marcescens
[19] = test system: Escherichia coli
[20] = test system: Shigella dysenteriae
[21] = test system: Klebsiella pneumoniae
[22] = test system: Proteus mirabilis
[23] = test system: Micrococcus luteus
[24] = test system: Candida albicans C627
[25] = test system: Escherichia coli CGSC 4908
[26] = test system: Staphylococcus epidermidis C621
[27] = test system: Salmonella enterica serovar typhimurium MS7953s
[28] = test system: Escherichia coli DC2
[29] = test system: Pseudomonas aeruginosa Z61
[30] = test system: Salmonella enterica subsp. enterica serovar Typhimurium ATCC 14028s
[31] = test system: Aeromonas salmonicida 97-4
[32] = test system: Pseudomonas aeruginosa K799
[33] = test system: Staphylococcus aureus C623
[34] = test system: Aeromonas salmonicida 99-1
[35] = test system: Escherichia coli UB1005
[36] = test system: Aspergillus flavus KCTC 7375
[37] = test system: Trichosporon beigelii KCTC 7251
[38] = test system: Pseudomonas aeruginosa KCTC 1637
[39] = test system: Bacillus megaterium KCTC 1096
[40] = test system: Candida albicans KCTC 7121
[41] = test system: Bacillus subtilis KCTC 1918
[42] = test system: Staphylococcus aureus KCTC 1621
[43] = test system: Proteus vulgaris
[44] = test system: Fusarium oxysporum KCTC 6084
[45] = test system: Escherichia coli KCTC 1682

**Q.** With `CC[C@H](C)[C@H](NC(=O)CNC(=O)[C@H](CO)NC(=O)[C@H](CC(C)C)NC(=O)[C@@H](NC(=O)[C@H](CCCN=C(N)N)NC(=O)CNC(=O)[C@@H](NC(=O)[C@H](C)NC(=O)[C@@H]1CCCN1C(=O)[C@H](CC(C)C)NC(=O)[C@@H](N)Cc1ccccc1)[C@@H](C)CC)C(C)C)C(=O)N[C@@H](CC(C)C)C(N)=O` [FLPAIGRVLSGIL] as the molecule, how does the MIC [1] read?
**A.** Its MIC is over 40 µM.

**Q.** And the MIC [2]?
**A.** Its MIC is 5 µM (≈ 6.77 µg/mL).

**Q.** What about the MIC [3] of the same molecule?
**A.** Its MIC is at least 40 µM.

**Q.** And the MIC [4]?
**A.** Its MIC is 20 µM (≈ 27.1 µg/mL).

**Q.** And the MIC [5]?
**A.** Its MIC is at least 40 µM.

**Q.** And the MIC [6]?
**A.** Its MIC is 10 µM (≈ 13.5 µg/mL).

**Q.** `CC[C@H](C)[C@H](NC(=O)CNC(=O)[C@H](CO)NC(=O)[C@H](CC(C)C)NC(=O)[C@H](C)NC(=O)[C@H](CCCN=C(N)N)NC(=O)CNC(=O)[C@@H](NC(=O)[C@H](CC(C)C)NC(=O)[C@@H]1CCCN1C(=O)[C@H](CC(C)C)NC(=O)[C@@H](N)Cc1ccccc1)[C@@H](C)CC)C(=O)N[C@@H](CC(C)C)C(N)=O` [FLPLIGRALSGIL] was tested. Which MIC [1] did it give?
**A.** Its MIC is over 40 µM.

**Q.** What about the MIC [2] of the same molecule?
**A.** Its MIC is 5 µM (≈ 6.84 µg/mL).

**Q.** What about the MIC [3] of the same molecule?
**A.** The MIC was at least 40 µM.

**Q.** And the MIC [4]?
**A.** The MIC was 20 µM (≈ 27.4 µg/mL).

**Q.** And the MIC [5]?
**A.** The MIC was 20 µM (≈ 27.4 µg/mL).

**Q.** And the MIC [6]?
**A.** Its MIC is 10 µM (≈ 13.7 µg/mL).

**Q.** What does the source list for `CC[C@H](C)[C@H](NC(=O)[C@H](C)NC(=O)[C@H](CC(=O)O)NC(=O)[C@H](Cc1c[nH]c2ccccc12)NC(=O)[C@@H](NC(=O)[C@H](CS)NC(=O)[C@H](CCC(=O)O)NC(=O)CN)[C@@H](C)CC)C(=O)N[C@@H](Cc1ccccc1)C(=O)N[C@@H](Cc1cnc[nH]1)C(=O)NCC(=O)N[C@@H](C)C(=O)N[C@@H](CCCCN)C(=O)N[C@@H](Cc1cnc[nH]1)C(=O)N[C@@H](Cc1ccccc1)C(=O)N[C@@H](CC(C)C)C(=O)N[C@@H](Cc1cnc[nH]1)C(=O)N[C@@H](CCCN=C(N)N)C(=O)N[C@@H](CC(C)C)C(=O)N[C@H](C(=O)N[C@@H](CC(N)=O)C(=O)N1CCC[C@H]1C(N)=O)C(C)C` [GECIWDAIFHGAKHFLHRLVNP]?
**A.** MIC [7]: 7.62 µM (≈ 19.5 µg/mL); MIC [8]: 7.62 µM (≈ 19.5 µg/mL); MIC [9]: 7.62 µM (≈ 19.5 µg/mL); MIC [10]: 7.62 µM (≈ 19.5 µg/mL); MIC [11]: 7.62 µM (≈ 19.5 µg/mL); MIC [12]: 7.62 µM (≈ 19.5 µg/mL); MIC [13]: 7.62 µM (≈ 19.5 µg/mL)

**Q.** `CC(C)C[C@@H]1NC(=O)CNC(=O)[C@H](CO)NC(=O)[C@H](C(C)C)NC(=O)CNC(=O)[C@@H](NC(=O)[C@H](CC(C)C)NC(=O)[C@@H](NC(=O)[C@H](CCCCN)NC(=O)[C@H](CCCCN)NC(=O)CNC(=O)[C@@H](NC(=O)CNC(=O)[C@H](CC(C)C)NC(=O)[C@@H](NC(=O)[C@H](CCCCN)NC(=O)[C@H](CO)NC(=O)[C@H](CC(C)C)NC(=O)[C@H](CC(C)C)NC(=O)CN)C(C)C)C(C)C)C(C)C)CSSC[C@@H](C(=O)O)NC1=O` [GLLSKVLGVGKKVLCGVSGLC] was tested. Which MIC [14] did it give?
**A.** Its MIC is 49.2 µM (≈ 99.9 µg/mL).

**Q.** What about the MIC [15] of the same molecule?
**A.** Its MIC is 73.9 µM (≈ 150 µg/mL).

**Q.** What about the MIC [16] of the same molecule?
**A.** The MIC was 15 µM (≈ 30.4 µg/mL).

**Q.** And the MIC [17]?
**A.** Its MIC is 11.1 µM (≈ 22.5 µg/mL).

**Q.** And the MIC [18]?
**A.** The MIC was at least 98.5 µM.

**Q.** What about the MIC [19] of the same molecule?
**A.** The MIC was 5 µM (≈ 10.1 µg/mL).

**Q.** And the MIC [20]?
**A.** The MIC was 4.92 µM (≈ 9.99 µg/mL).

**Q.** What about the MIC [21] of the same molecule?
**A.** Its MIC is 4.92 µM (≈ 9.99 µg/mL).

**Q.** And the MIC [22]?
**A.** The MIC was at least 98.5 µM.

**Q.** What about the MIC [23] of the same molecule?
**A.** The MIC was 1.23 µM (≈ 2.5 µg/mL).

**Q.** What does the source list for `CC[C@H](C)[C@H](NC(=O)[C@H](Cc1cnc[nH]1)NC(=O)[C@H](CCCCN)NC(=O)[C@H](C)NC(=O)[C@H](C)NC(=O)[C@H](Cc1cnc[nH]1)NC(=O)[C@H](CCCNC(=N)N)NC(=O)CNC(=O)[C@H](Cc1cnc[nH]1)NC(=O)[C@H](CCCCN)NC(=O)[C@H](Cc1ccccc1)NC(=O)[C@@H](NC(=O)[C@H](CO)NC(=O)CNC(=O)[C@H](Cc1c[nH]c2ccccc12)NC(=O)CN)[C@@H](C)CC)C(=O)NCC(=O)N[C@@H](Cc1cnc[nH]1)C(=O)N[C@@H](C)C(=O)N[C@@H](C)C(=O)N[C@H](C(=O)N[C@@H](CC(N)=O)C(=O)N[C@@H](Cc1cnc[nH]1)C(=O)N[C@@H](Cc1ccc(O)cc1)C(=O)N[C@@H](CC(C)C)C(C)=O)C(C)C` [GWGSIFKHGRHAAKHIGHAAVNHYL]?
**A.** MIC [24]: 11.6 µM (≈ 32 µg/mL); MIC [25]: 1.45 µM (≈ 4 µg/mL); MIC [26]: 23.1 µM (≈ 64 µg/mL); MIC [27]: 1.45 µM (≈ 4 µg/mL); MIC [28]: 0.723 µM (≈ 2 µg/mL); MIC [29]: 1.45 µM (≈ 4 µg/mL); MIC [30]: 23.1 µM (≈ 64 µg/mL); MIC [31]: 1.45 µM (≈ 4 µg/mL); MIC [32]: 5.79 µM (≈ 16 µg/mL); MIC [33]: 11.6 µM (≈ 32 µg/mL); MIC [34]: 1.45 µM (≈ 4 µg/mL); MIC [35]: 1.45 µM (≈ 4 µg/mL)

**Q.** For `CC[C@H](C)[C@H](NC(=O)[C@H](CCCCN)NC(=O)[C@H](CCCCN)NC(=O)[C@H](Cc1ccccc1)NC(=O)[C@H](Cc1c[nH]c2ccccc12)NC(=O)[C@@H](N)CCCCN)C(=O)N1CCC[C@H]1C(=O)N[C@@H](CCCCN)C(=O)N[C@@H](Cc1ccccc1)C(=O)N[C@@H](CC(C)C)C(=O)N[C@@H](Cc1cnc[nH]1)C(=O)N[C@@H](CC(C)C)C(=O)N[C@@H](C)C(=O)N[C@@H](CCCCN)C(=O)N[C@@H](CCCCN)C(=O)N[C@@H](Cc1ccccc1)C(N)=O` [KWFKKIPKFLHLAKKF], which MIC [36] is on record?
**A.** Its MIC is at least 100 µM.

**Q.** What about the MIC [37] of the same molecule?
**A.** The MIC was at least 50 µM.

**Q.** And the MIC [38]?
**A.** Its MIC is 1.56 µM (≈ 3.21 µg/mL).

**Q.** What about the MIC [39] of the same molecule?
**A.** The MIC was 1.56 µM (≈ 3.21 µg/mL).

**Q.** What about the MIC [40] of the same molecule?
**A.** The MIC was at least 50 µM.

**Q.** And the MIC [41]?
**A.** The MIC was 0.78 µM (≈ 1.61 µg/mL).

**Q.** And the MIC [42]?
**A.** Its MIC is 3.12 µM (≈ 6.43 µg/mL).

**Q.** What about the MIC [43] of the same molecule?
**A.** Its MIC is 3.12 µM (≈ 6.43 µg/mL).

**Q.** And the MIC [44]?
**A.** The MIC was at least 100 µM.

**Q.** And the MIC [45]?
**A.** The MIC was 12.5 µM (≈ 25.7 µg/mL).

**Q.** Which MIC [36] does the source give for `CC[C@H](C)[C@H](NC(=O)[C@H](CCCCN)NC(=O)[C@H](CCCCN)NC(=O)[C@H](Cc1ccccc1)NC(=O)[C@H](CC(C)C)NC(=O)[C@H](CCCCN)NC(=O)[C@@H](N)Cc1c[nH]c2ccccc12)C(=O)N1CCC[C@H]1C(=O)N[C@@H](CCCCN)C(=O)N[C@@H](Cc1ccccc1)C(=O)N[C@@H](CC(C)C)C(=O)N[C@@H](Cc1cnc[nH]1)C(=O)N[C@@H](CC(C)C)C(=O)N[C@@H](C)C(=O)N[C@@H](CCCCN)C(=O)N[C@@H](CCCCN)C(=O)N[C@@H](Cc1ccccc1)C(N)=O` [WKLFKKIPKFLHLAKKF] here?
**A.** Its MIC is at least 50 µM.

**Q.** And the MIC [37]?
**A.** The MIC was at least 50 µM.

**Q.** What about the MIC [38] of the same molecule?
**A.** The MIC was 1.56 µM (≈ 3.39 µg/mL).

**Q.** And the MIC [39]?
**A.** Its MIC is 1.56 µM (≈ 3.39 µg/mL).

**Q.** And the MIC [40]?
**A.** The MIC was at least 50 µM.

**Q.** What about the MIC [41] of the same molecule?
**A.** Its MIC is 0.78 µM (≈ 1.69 µg/mL).

**Q.** What about the MIC [42] of the same molecule?
**A.** Its MIC is 3.12 µM (≈ 6.79 µg/mL).

**Q.** And the MIC [43]?
**A.** Its MIC is 1.56 µM (≈ 3.39 µg/mL).

**Q.** What about the MIC [44] of the same molecule?
**A.** Its MIC is at least 50 µM.

**Q.** And the MIC [45]?
**A.** The MIC was 6.25 µM (≈ 13.6 µg/mL).
